Measurements as given in patent US11352352B2, “Aminopyrimidine compound, preparation method therefor and use thereof” (BEIJING ADAMADLE BIOTECHNOLOGY LIMITED LIABILITY COMPANY, priority 2017, dated 2022).

Legend:
Assay in all cases: Cell proliferation inhibition experiment, CellTiter-Glo (CTG) method
Assay type in all cases: cell-based
A-431 = A-431 cells, 3 days
In short: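 CTG luminescence measured after 3-day compound exposure, with a T0 plate read the day after seeding and solvent wells as control. Nine concentrations, 3-fold steps, in triplicate: A-431 from 30 μM, NCI-H1975 and PC-9 from 1.111 μM. IC50 derived by non-linear S-curve regression.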

PC-9 = PC-9 cells, 3 days
In short: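 Cells in log-phase growth (viability above 90% by trypan blue) were seeded at 90 μL per well in black-walled, clear-bottom 96-well plates and incubated overnight at 37° C., 5% CO2. A T0 plate was read the next day. Test compounds were added at nine concentrations in triplicate with a solvent control. Viability was measured by CellTiter-Glo luminescence on EnVision, and IC50 came from non-linear S-curve fitting in GraphPad Prism 5.0.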

NCI-H1975 = conditions: for IC50: NCI-H1975 cells, CTG, 3 days; for A-431/NCI-H1975 Selectivity: ratio of A-431 IC50 to NCI-H1975 IC50
In short: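 NCI-H1975 cells with viability above 90% by trypan blue were seeded at 90 μL per well in black 96-well plates and incubated overnight at 37° C., 5% CO2. Compounds were added at nine concentrations in triplicate, and viability was measured with CellTiter-Glo luminescence on EnVision. IC50 came from non-linear S-curve fitting in GraphPad Prism 5.0.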

Compound | IC50 (A-431; Homo sapiens, A-431, 72 h) | IC50 (PC-9; Homo sapiens, PC-9, 72 h) | IC50 (NCI-H1975; Homo sapiens, NCI-H1975, 72 h) | A-431/NCI-H1975 Selectivity (NCI-H1975) | IC50 (A-431) | IC50 (PC-9) | IC50 (NCI-H1975)
C=CC(=O)Nc1cc(Nc2cc(-c3ccc4cnn(C)c4c3)ncn2)c(OC(F)F)cc1N1CCN(CCN(C)C)CC1 [compound 182] | 1740 nM | 55.9 nM | 53.3 nM | 32.6 |  |  | 
C=CC(=O)Nc1cc(Nc2cc(-c3ccc4cnn(C)c4c3)ncn2)c(OC(F)F)cc1N(C)CCN(CC)CC [compound 183] | 984 nM | 69.8 nM | 40.4 nM | 24.4 |  |  | 
C=CC(=O)Nc1cc(Nc2cc(-c3ccc4cnn(C)c4c3)ncn2)c(OC)cc1N1CCN(C2CCN(C)CC2)CC1 [compound 184] | 1060 nM | 32.6 nM | 49.5 nM | 21.3 |  |  | 
C=CC(=O)Nc1cc(Nc2cc(-c3ccc4c(cnn4C)c3)ncn2)c(OC(F)F)cc1OCCN1CCN(C)CC1 [compound 185] | 2030 nM | 43.7 nM | 53.8 nM | 37.8 |  |  | 
C=CC(=O)Nc1cc(Nc2cc(-c3ccc4c(cnn4C)c3)ncn2)c(OC)cc1OCCN(C)C(C)C [compound 186] | 2570 nM | 50.2 nM | 76.1 nM | 33.7 |  |  | 
C=CC(=O)Nc1cc(Nc2cc(-c3ccc4c(cnn4C)c3)ncn2)c(OC(F)F)cc1OCCN(C)C(C)C [compound 187] | 2410 nM | 46.8 nM | 53 nM | 45.4 |  |  | 
C=CC(=O)Nc1cc(Nc2cc(-c3ccc4cnn(C)c4c3)ncn2)c(OC)cc1OCCN(C)C(C)C [compound 188] | 2790 nM | 55.9 nM | 114 nM | 24.5 |  |  | 
C=CC(=O)Nc1cc(Nc2cc(-c3ccc4c(cnn4C)c3)ncn2)c(OC)cc1OCCN1CCCCC1 [compound 189] | 2640 nM | 24.1 nM | 109 nM | 24.3 |  |  | 
C=CC(=O)Nc1cc(Nc2cc(-c3ccc4nc(C)sc4c3)ncn2)c(OC)cc1N1CCN(CCN(C)C)CC1 [compound 190] | 2080 nM | 24.7 nM | 108 nM | 19.3 |  |  | 
C=CC(=O)Nc1cc(Nc2cc(-c3ccc4nc(C)sc4c3)ncn2)c(OC)cc1N1CCC(N(CC)CC)CC1 [compound 191] | 1760 nM | 56.4 nM | 91.8 nM | 19.2 |  |  | 
C=CC(=O)Nc1cc(Nc2cc(-c3cc4cnn(C)c4cc3F)ncn2)c(OC)cc1N1C[C@@H](C)N(C)[C@@H](C)C1 [compound 192] | 1840 nM | 33 nM | 47 nM | 39.2 |  |  | 
C=CC(=O)Nc1cc(Nc2cc(-c3cc4cnn(C)c4cc3F)ncn2)c(OC)cc1N1CCC(N(CC)CC)CC1 [compound 193] | 1480 nM | 30.9 nM | 52.8 nM | 28.0 |  |  | 
C=CC(=O)Nc1cc(Nc2cc(-c3cc4cnn(C)c4cc3F)ncn2)c(OC)cc1OCCN(C)C [compound 194] | 1640 nM | 45.8 nM | 75.2 nM | 21.8 |  |  | 
C=CC(=O)Nc1cc(Nc2cc(-c3cc4cnn(C)c4cc3F)ncn2)c(OC)cc1N(C)C1CCN(C)C1 (stereo not drawn) [compound 195] | 1440 nM | 19.5 nM | 20.4 nM | 70.5 |  |  | 
C=CC(=O)Nc1cc(Nc2cc(-c3ccc4cnn(C)c4c3)ncn2)c(OC)cc1N(C)CCN(C)C(C)C [compound 196] | 2020 nM | 20.7 nM | 36.4 nM | 55.4 |  |  | 
C=CC(=O)Nc1c(N(C)CCN(C)C(C)C)cc(OC)c(Nc2cc(-c3ccc4c(cnn4C)c3)ncn2)c1F [compound 197] | 1350 nM | 13.4 nM | 20.7 nM | 65.1 |  |  | 
C=CC(=O)Nc1c(N(C)CCN(C)C(C)C)cc(OC)c(Nc2cc(-c3ccc4cnn(C)c4c3)ncn2)c1F [compound 198] | 2340 nM | 65.8 nM | 77.1 nM | 30.4 |  |  | 
C=CC(=O)Nc1cc(Nc2cc(-c3ccc4cnn(C)c4c3)ncn2)c(OC(F)F)cc1N(C)CCN(C)C(C)C [compound 199] | 1980 nM | 24.7 nM | 37.8 nM | 52.3 |  |  | 
C=CC(=O)Nc1c(N(C)CCN(C)CC)cc(OC)c(Nc2cc(-c3ccc4c(cnn4C)c3)ncn2)c1F [compound 200] | 984 nM | 27 nM | 14.2 nM |  |  |  | 
C=CC(=O)Nc1c(N(C)CCN(C)CC)cc(OC)c(Nc2cc(-c3ccc4cnn(C)c4c3)ncn2)c1F [compound 201] | 1340 nM | 21.1 nM | 24.5 nM | 54.9 |  |  | 

Compound | IC50 (A-431; Homo sapiens, A-431, 72 h) | IC50 (PC-9; Homo sapiens, PC-9, 72 h) | IC50 (NCI-H1975; Homo sapiens, NCI-H1975, 72 h) | A-431/NCI-H1975 Selectivity (NCI-H1975) | IC50 (A-431) | IC50 (PC-9) | IC50 (NCI-H1975)
C=CC(=O)Nc1cc(Nc2cc(-c3ccc4c(cnn4C)c3)ncn2)c(OC)cc1N1CCC(N2CCC(OC)C2)CC1 (stereo not drawn) [compound 202] | 798 nM | 12.7 nM | 10.7 nM | 74.6 |  |  | 
C=CC(=O)Nc1cc(Nc2cc(-c3ccc4c(cnn4C)c3)ncn2)c(OC)cc1N1CCC(N2CCC(OC)CC2)CC1 [compound 204] | 891 nM | 15.8 nM | 15.7 nM | 56.7 |  |  | 
C=CC(=O)Nc1cc(Nc2cc(-c3ccc4cnn(C)c4c3)ncn2)c(OC)cc1N1CCC(N2CCC(OC)CC2)CC1 [compound 205] | 885 nM | 7.6 nM | 13 nM |  |  |  | 
C=CC(=O)Nc1cc(Nc2cc(-c3ccc4cnn(C)c4c3)ncn2)c(OC)cc1N1CCC(N2CC(OC)C2)CC1 [compound 207] | 895 nM | 5.6 nM | 10.2 nM | 87.7 |  |  | 
C=CC(=O)Nc1cc(Nc2cc(-c3ccc4c(cnn4C)c3)ncn2)c(OC)cc1N1CCC(N2CCOCC2)CC1 [compound 208] |  |  |  | 54.8 | 1100 nM | 10.7 nM | 20 nM
C=CC(=O)Nc1cc(Nc2cc(-c3ccc4cnn(C)c4c3)ncn2)c(OC)cc1N1CCC(C2CCOCC2)CC1 [compound 209] | 1620 nM | 12 nM | 24.7 nM | 65.7 |  |  | 
C=CC(=O)Nc1cc(Nc2cc(-c3ccc4cnn(C)c4c3)ncn2)c(OC)cc1N1CCC(N2CCN(C3COC3)CC2)CC1 [compound 211] | 1040 nM | 7.4 nM | 11.3 nM |  |  |  | 
C=CC(=O)Nc1cc(Nc2cc(-c3ccc4c(cnn4C)c3)ncn2)c(OC)cc1N1CCC(N2CCCC2=O)CC1 [compound 212] | 2030 nM | 54.7 nM | 71.8 nM | 28.3 |  |  | 
C=CC(=O)Nc1cc(Nc2cc(-c3ccc4cnn(C)c4c3)ncn2)c(OC)cc1N1CCC(N2CCCC2=O)CC1 [compound 213] | 2060 nM | 55.6 nM | 74.9 nM | 27.4 |  |  | 
C=CC(=O)Nc1cc(Nc2cc(-c3ccc4c(cnn4C)c3)ncn2)c(OC)cc1N1CCN(C2CCOC2)CC1 (stereo not drawn) [compound 214] | 1530 nM | 16.7 nM | 19.7 nM | 77.6 |  |  | 
C=CC(=O)Nc1cc(Nc2cc(-c3ccc4cnn(C)c4c3)ncn2)c(OC)cc1N1CCN(C2CCOC2)CC1 (stereo not drawn) [compound 215] | 1440 nM | 15.4 nM | 18.4 nM | 78.1 |  |  | 
C=CC(=O)Nc1cc(Nc2cc(-c3ccc4c(cnn4C)c3)ncn2)c(OC)cc1N1CCN(C2CCC(OC)C2)CC1 (stereo not drawn) [compound 216] | 1220 nM | 12.8 nM | 13.6 nM | 90.0 |  |  | 
C=CC(=O)Nc1cc(Nc2cc(-c3ccc4cnn(C)c4c3)ncn2)c(OC)cc1N1CCN(C2CCC(OC)C2)CC1 (stereo not drawn) [compound 217] | 1400 nM | 13.6 nM | 16.9 nM | 82.8 |  |  | 
C=CC(=O)Nc1cc(Nc2cc(-c3ccc4c(cnn4C)c3)ncn2)c(OC)cc1N1CCN(C2COC2)CC1 [compound 218] | 1830 nM | 9.2 nM | 21.2 nM | 86.6 |  |  | 
C=CC(=O)Nc1cc(Nc2cc(-c3ccc4cnn(C)c4c3)ncn2)c(OC)cc1N1CCN(C2COC2)CC1 [compound 219] | 2510 nM | 45.9 nM | 49.4 nM | 50.8 |  |  | 
C=CC(=O)Nc1cc(Nc2cc(-c3ccc4c(cnn4C)c3)ncn2)c(OC)cc1N(C)C1CCN(C2CCOCC2)CC1 [compound 220] | 2430 nM | 55.4 nM | 60.7 nM | 40.1 |  |  | 
C=CC(=O)Nc1cc(Nc2cc(-c3ccc4cnn(C)c4c3)ncn2)c(OC)cc1N(C)C1CCN(C2CCOCC2)CC1 [compound 221] | 2440 nM | 96 nM | 70.3 nM | 34.7 |  |  | 
C=CC(=O)Nc1cc(Nc2cc(-c3ccc4c(cnn4C)c3)ncn2)c(OC)cc1N(C)C1CCN(CCOC)C1 (stereo not drawn) [compound 222] | 983 nM | 20.7 nM | 13.6 nM | 72.3 |  |  | 
C=CC(=O)Nc1cc(Nc2cc(-c3ccc4cnn(C)c4c3)ncn2)c(OC)cc1N(C)C1CCN(CCOC)C1 (stereo not drawn) [compound 223] | 2320 nM | 40.6 nM | 40.5 nM | 57.4 |  |  | 
